# Values of other authors, collected in US8343778B2, “Microfluidic microarray assemblies and methods of manufacturing and using” (Simon Fraser University, priority 2004, dated 2013).
# Target: T1, Ure2p (Saccharomyces cerevisiae, UniProt P23202)
# T1 sequence (P23202 1-354): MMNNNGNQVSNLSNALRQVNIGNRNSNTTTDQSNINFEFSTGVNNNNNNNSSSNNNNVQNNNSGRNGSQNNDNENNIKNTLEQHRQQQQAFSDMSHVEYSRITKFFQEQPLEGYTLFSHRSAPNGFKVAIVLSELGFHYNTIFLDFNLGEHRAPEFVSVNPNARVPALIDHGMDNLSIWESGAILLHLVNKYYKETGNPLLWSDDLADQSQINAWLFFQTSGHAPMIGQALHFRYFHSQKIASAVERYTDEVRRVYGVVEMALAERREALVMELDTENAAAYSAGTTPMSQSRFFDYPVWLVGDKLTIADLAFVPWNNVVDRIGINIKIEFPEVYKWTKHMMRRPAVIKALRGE
# Conditions: high-density SMA of 1,3-dioxane-based small molecules exposed to fluorescently labeled Ure2p
substance,measurement,value
uretupamine,binding of fluorescently labeled Ure2p to arrayed small molecule,Ure2p-binding
